Results: patent US20060229299A1, “5ht2c Receptor antagonists in the treatment of schizophrenia” (priority 2003, published 2006)

What was measured:
[1] = biological target: T1, 5-HT2C receptor (Homo sapiens, UniProt P28335); conditions: Table 3; expressed as pKi or pKd values; known affinities; cited from earlier work
T1 sequence (P28335 33-458): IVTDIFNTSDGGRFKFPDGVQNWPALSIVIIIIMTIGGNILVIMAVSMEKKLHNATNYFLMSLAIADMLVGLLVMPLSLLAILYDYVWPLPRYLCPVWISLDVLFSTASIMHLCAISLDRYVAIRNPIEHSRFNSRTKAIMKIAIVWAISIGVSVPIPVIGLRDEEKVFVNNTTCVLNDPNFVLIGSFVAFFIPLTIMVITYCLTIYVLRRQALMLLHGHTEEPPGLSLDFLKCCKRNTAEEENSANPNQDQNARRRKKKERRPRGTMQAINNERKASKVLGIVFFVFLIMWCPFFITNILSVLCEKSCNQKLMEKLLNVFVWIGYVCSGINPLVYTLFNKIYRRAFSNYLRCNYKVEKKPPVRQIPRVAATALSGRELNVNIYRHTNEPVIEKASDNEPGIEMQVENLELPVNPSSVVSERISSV

[2] = biological target: H1 histamine receptor (Homo sapiens, UniProt P35367); conditions: ref 11 (human and for ritanserin data also rat); cited from earlier work
[3] = biological target: D2 receptor (Homo sapiens, UniProt P14416); conditions: Table 3; expressed as pKi or pKd values; known affinities; cited from earlier work
Chain of D2 receptor (P14416 whole entry): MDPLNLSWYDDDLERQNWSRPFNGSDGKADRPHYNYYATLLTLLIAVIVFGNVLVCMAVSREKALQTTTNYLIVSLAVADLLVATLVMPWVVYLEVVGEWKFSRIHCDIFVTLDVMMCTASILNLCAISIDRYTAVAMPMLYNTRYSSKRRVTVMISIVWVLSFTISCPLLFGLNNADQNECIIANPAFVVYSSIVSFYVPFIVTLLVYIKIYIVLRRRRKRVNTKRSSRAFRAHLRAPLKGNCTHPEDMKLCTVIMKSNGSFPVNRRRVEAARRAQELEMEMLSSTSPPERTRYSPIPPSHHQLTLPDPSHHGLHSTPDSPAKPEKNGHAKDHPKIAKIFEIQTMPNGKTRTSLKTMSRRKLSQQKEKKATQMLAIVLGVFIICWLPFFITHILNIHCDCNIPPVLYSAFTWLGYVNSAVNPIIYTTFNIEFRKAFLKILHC

[4] = biological target: sigma, σ receptor; conditions: ref 11 (human and for ritanserin data also rat); cited from earlier work
[5] = biological target: D1 dopamine receptor; conditions: ref 11 (human and for ritanserin data also rat); cited from earlier work
[6] = biological target: 5-HT2C receptor (UniProt P28335); conditions: ref 11 (human and for ritanserin data also rat); cited from earlier work
[7] = test system: 5-HT2C receptor relative to 5-HT2A and D2 receptors; assay: Relative 5-HT2C affinity (formula I, sum of 5-HT2C/5-HT2A and 5-HT2C/D2 affinity ratios); conditions: Table 2; sum of affinity ratios from data of Table 1
[8] = biological target: D3 dopamine receptor (Homo sapiens, UniProt P35462); conditions: ref 11 (human and for ritanserin data also rat); cited from earlier work
[9] = biological target: α1-adrenoceptor; conditions: ref 11 (human and for ritanserin data also rat); cited from earlier work
[10] = biological target: 5-HT7 receptor (UniProt P34969); conditions: ref 11 (human and for ritanserin data also rat); cited from earlier work
[11] = biological target: mACh, muscarinic acetylcholine receptor; conditions: ref 11 (human and for ritanserin data also rat); cited from earlier work
[12] = biological target: D2-L (long form of D2 receptor) (Homo sapiens, UniProt P14416); conditions: ref 11 (human and for ritanserin data also rat); cited from earlier work
[13] = biological target: α2-adrenoceptor; conditions: ref 11 (human and for ritanserin data also rat); cited from earlier work

Which “5-HT2C Affinity” value [1] does the source give for `Cc1nc2sccn2c(=O)c1CCN1CCC(=C(c2ccc(F)cc2)c2ccc(F)cc2)CC1` [Ritanserin] here?
Its value is 9.

What about the “H1 affinity value (−logKi)” value [2] of the same molecule?
The value was 8.2^11.

And the “D2 Affinity” value [3]?
The value was 7.4.

What about the “sigma affinity value (−logKi)” value [4] of the same molecule?
The value was 6.1^11.

And the “D1 affinity value (−logKi)” value [5]?
Its value is 5.9^11.

What about the “5-HT2C affinity value (−logKi)” value [6] of the same molecule?
Its value is 9.0^11.

And the “(2C/2A) + (2C/D2)” value [7]?
Its value is 2.15.

And the “D3 affinity value (−logKi)” value [8]?
The value was 7.1^11.

What about the “α1 affinity value (−logKi)” value [9] of the same molecule?
The value was 7.5^11.

What about the “5-HT7 affinity value (−logKi)” value [10] of the same molecule?
The value was 7.8^11.

What about the “mACh affinity value (−logKi)” value [11] of the same molecule?
The value was 5.4^11.

And the “D2-L affinity value (−logKi)” value [12]?
Its value is 7.4^11.

What about the “α2 affinity value (−logKi)” value [13] of the same molecule?
The value was 7.3^11.
